According to article PMC11596972, “Synthesis and Antimicrobial Activity of 3-Alkylidene-2-Indolone Derivatives” (Molecules, 2024):
Converted amounts (≈) assume the structure as drawn. Read-outs that look alike come from different tables or passages of the source.

Assays:
[1] = system: S. aureus 4220; test: MIC, double dilution method, S. aureus 4220; type: cell-based; settings: Staphylococcus aureus, 4220, 24 h, S. aureus 4220, Gram-positive; 24 h culture; read-out: MIC
[2] = system: S. aureus ATCC 6538; test: MIC, double dilution method, S. aureus ATCC 6538; type: cell-based; settings: Staphylococcus aureus, ATCC6538, 24 h, S. aureus ATCC 6538, Gram-positive; 24 h culture; read-out: MIC
[3] = system: MRSA ATCC 43300; test: MIC, double dilution method, MRSA ATCC 43300; type: cell-based, Methicillin-resistant Staphylococcus aureus; settings: Staphylococcus aureus, 24 h, MRSA ATCC 43300, Gram-positive; 24 h culture; read-out: MIC
[4] = system: P. aeruginosa CMCC 10211; test: MIC, double dilution method, P. aeruginosa CMCC 10211; type: cell-based; settings: Pseudomonas aeruginosa, CMCC10211; P. aeruginosa CMCC 10211, Gram-negative; 24 h culture; read-out: MIC
[5] = system: E. coli ATCC 25922; test: MIC, double dilution method, E. coli ATCC 25922; type: cell-based; settings: Escherichia coli, ATCC25922; E. coli ATCC 25922, Gram-negative; 24 h culture; read-out: MIC
[6] = system: E. coli 1924; test: MIC, double dilution method, E. coli 1924; type: cell-based, Escherichia coli; settings: Escherichia coli; E. coli 1924, Gram-negative; 24 h culture; read-out: MIC
[7] = system: C. albicans CMCC 98001; test: MIC, double dilution method, C. albicans CMCC 98001; type: cell-based, Candida albicans; settings: for MIC: C. albicans CMCC 98001, fungus, 24 h culture; for antifungal activity (class in words): C. albicans CMCC 98001
[8] = Candida albicans, CMCC98001, 24 h, read-out: MIC

Structure (SMILES): C/C(O)=C1/C(=O)N(C)c2c(C)cccc21 [Compound 5b, (Z)-3-(1-hydroxyethylidene)-1,7-dimethylindolin-2-one]
- MIC [1]: > 64 µg/mL
- MIC [2]: 64 µg/mL (≈ 315 µM)
- MIC [3]: > 64 µg/mL
- MIC [4]: 64 µg/mL (≈ 315 µM)
- MIC [5]: 64 µg/mL (≈ 315 µM)
- MIC [6]: 32 µg/mL (≈ 157 µM)
- MIC [7, 8]: 32 µg/mL (≈ 157 µM)

Structure (SMILES): C/C(O)=C1/C(=O)N(C)c2cc(C)ccc21 [Compound 5c, (Z)-3-(1-hydroxyethylidene)-1,6-dimethylindolin-2-one]
- MIC [1]: > 64 µg/mL
- MIC [2]: 64 µg/mL (≈ 315 µM)
- MIC [3]: > 64 µg/mL
- MIC [4]: 64 µg/mL (≈ 315 µM)
- MIC [5]: 64 µg/mL (≈ 315 µM)
- MIC [6]: 16 µg/mL (≈ 78.7 µM)
- MIC [7, 8]: 16 µg/mL (≈ 78.7 µM)

Structure (SMILES): C/C(O)=C1/C(=O)N(C)c2ccc(C)cc21 [Compound 5d, (Z)-3-(1-hydroxyethylidene)-1,5-dimethylindolin-2-one]
- MIC [2]: 64 µg/mL (≈ 315 µM)
- MIC [3]: > 64 µg/mL
- MIC [4]: 64 µg/mL (≈ 315 µM)
- MIC [5]: > 64 µg/mL
- MIC [6]: 2 µg/mL (≈ 9.84 µM)
- antifungal activity (class in words) [7]: moderate antifungal activity

Structure (SMILES): C/C(O)=C1/C(=O)N(C)c2c(F)cccc21 [Compound 5e, (Z)-7-fluoro-3-(1-hydroxyethylidene)-1-methylindolin-2-one]
- MIC [2]: 64 µg/mL (≈ 309 µM)
- MIC [3]: 64 µg/mL (≈ 309 µM)
- MIC [4]: > 64 µg/mL
- MIC [5]: > 64 µg/mL
- MIC [6]: 16 µg/mL (≈ 77.2 µM)
- MIC [7, 8]: 32 µg/mL (≈ 154 µM)

Structure (SMILES): C/C(O)=C1/C(=O)N(C)c2cc(F)ccc21 [Compound 5f, (Z)-6-fluoro-3-(1-hydroxyethylidene)-1-methylindolin-2-one]
- MIC [1]: > 64 µg/mL
- MIC [2]: > 64 µg/mL
- MIC [3]: > 64 µg/mL
- MIC [4]: > 64 µg/mL
- MIC [5]: > 64 µg/mL
- MIC [6]: 32 µg/mL (≈ 154 µM)
- MIC [7, 8]: 64 µg/mL (≈ 309 µM)

Structure (SMILES): C/C(O)=C1/C(=O)N(C)c2ccc(F)cc21 [Compound 5g, (Z)-5-fluoro-3-(1-hydroxyethylidene)-1-methylindolin-2-one]
- MIC [1]: > 64 µg/mL
- MIC [2]: 64 µg/mL (≈ 309 µM)
- MIC [3]: > 64 µg/mL
- MIC [4]: > 64 µg/mL
- MIC [5]: > 64 µg/mL
- MIC [6]: 64 µg/mL (≈ 309 µM)
- MIC [7, 8]: 32 µg/mL (≈ 154 µM)

Structure (SMILES): C/C(O)=C1/C(=O)N(C)c2cccc(F)c21 [Compound 5h, (Z)-4-fluoro-3-(1-hydroxyethylidene)-1-methylindolin-2-one]
- MIC [1]: 64 µg/mL (≈ 309 µM)
- MIC [2]: > 64 µg/mL
- MIC [3]: > 64 µg/mL
- MIC [4]: > 64 µg/mL
- MIC [5]: > 64 µg/mL
- MIC [6]: 32 µg/mL (≈ 154 µM)
- antifungal activity (class in words) [7]: moderate antifungal activity
- MIC [7]: 16 µg/mL (≈ 77.2 µM)
- MIC [7, 8]: 8 to 16 µg/mL (≈ 38.6 to 77.2 µM)

Structure (SMILES): C/C(O)=C1/C(=O)N(C)c2c(Cl)cccc21 [Compound 5i, (Z)-7-chloro-3-(1-hydroxyethylidene)-1-methylindolin-2-one]
- MIC [1]: 32 µg/mL (≈ 143 µM)
- MIC [2]: 32 µg/mL (≈ 143 µM)
- MIC [3]: 64 µg/mL (≈ 286 µM)
- MIC [4]: 64 µg/mL (≈ 286 µM)
- MIC [5]: > 64 µg/mL
- MIC [6]: 8 µg/mL (≈ 35.8 µM)
- MIC [7, 8]: 64 µg/mL (≈ 286 µM)

Structure (SMILES): C/C(O)=C1/C(=O)N(C)c2cc(Cl)ccc21 [Compound 5j, (Z)-6-chloro-3-(1-hydroxyethylidene)-1-methylindolin-2-one]
- MIC [1]: 32 µg/mL (≈ 143 µM)
- MIC [3]: > 64 µg/mL
- MIC [4]: > 64 µg/mL
- MIC [5]: > 64 µg/mL
- MIC [6]: 8 µg/mL (≈ 35.8 µM)
- MIC [7, 8]: 64 µg/mL (≈ 286 µM)

Structure (SMILES): C/C(O)=C1/C(=O)N(C)c2ccc(Cl)cc21 [Compound 5k, (Z)-5-chloro-3-(1-hydroxyethylidene)-1-methylindolin-2-one]
- MIC [2]: 16 µg/mL (≈ 71.5 µM)
- MIC [3]: > 64 µg/mL
- MIC [4]: > 64 µg/mL
- MIC [5]: > 64 µg/mL
- MIC [6]: 1 µg/mL (≈ 4.47 µM)
- MIC [7, 8]: 32 µg/mL (≈ 143 µM)

Structure (SMILES): C/C(O)=C1/C(=O)N(C)c2c(Br)cccc21 [Compound 5l, (Z)-7-bromo-3-(1-hydroxyethylidene)-1-methylindolin-2-one]
- MIC [1]: 32 µg/mL (≈ 119 µM)
- MIC [2]: 64 µg/mL (≈ 239 µM)
- MIC [3]: 64 µg/mL (≈ 239 µM)
- MIC [4]: > 64 µg/mL
- MIC [5]: > 64 µg/mL
- MIC [6]: 8 µg/mL (≈ 29.8 µM)
- MIC [7, 8]: 64 µg/mL (≈ 239 µM)

Structure (SMILES): C/C(O)=C1/C(=O)N(C)c2cc(Br)ccc21 [Compound 5m, (Z)-6-bromo-3-(1-hydroxyethylidene)-1-methylindolin-2-one]
- MIC [1]: > 64 µg/mL
- MIC [2]: 32 µg/mL (≈ 119 µM)
- MIC [3]: 64 µg/mL (≈ 239 µM)
- MIC [4]: > 64 µg/mL
- MIC [5]: > 64 µg/mL
- MIC [6]: 16 µg/mL (≈ 59.7 µM)
- MIC [7, 8]: 64 µg/mL (≈ 239 µM)

Structure (SMILES): C/C(O)=C1/C(=O)N(C)c2ccc(Br)cc21 [Compound 5n, (Z)-5-bromo-3-(1-hydroxyethylidene)-1-methylindolin-2-one]
- MIC [1]: 32 µg/mL (≈ 119 µM)
- MIC [2]: 32 µg/mL (≈ 119 µM)
- MIC [3]: > 64 µg/mL
- MIC [4]: > 64 µg/mL
- MIC [5]: > 64 µg/mL
- MIC [6]: 8 µg/mL (≈ 29.8 µM)
- MIC [7, 8]: 64 µg/mL (≈ 239 µM)

Structure (SMILES): COc1cccc2c1N(C)C(=O)/C2=C(/C)O [Compound 5o, (Z)-3-(1-hydroxyethylidene)-7-methoxy-1-methylindolin-2-one]
- MIC [1]: > 64 µg/mL
- MIC [2]: > 64 µg/mL
- MIC [3]: 64 µg/mL (≈ 292 µM)
- MIC [4]: 64 µg/mL (≈ 292 µM)
- MIC [5]: > 64 µg/mL
- MIC [6]: 16 µg/mL (≈ 73 µM)
- MIC [7, 8]: 32 µg/mL (≈ 146 µM)

Structure (SMILES): C/C(O)=C1/C(=O)N(C)c2ccc(C#N)cc21 [Compound 5p, (Z)-3-(1-hydroxyethylidene)-1-methyl-2-oxoindoline-5-carbonitrile]
- MIC [1]: 64 µg/mL (≈ 299 µM)
- MIC [2]: 64 µg/mL (≈ 299 µM)
- MIC [3]: > 64 µg/mL
- MIC [4]: > 64 µg/mL
- MIC [5]: > 64 µg/mL
- MIC [6]: > 64 µg/mL
- MIC [7, 8]: > 64 µg/mL

Structure (SMILES): C/C(O)=C1/C(=O)N(C)c2ccc(C(F)(F)F)cc21 [Compound 5q, (Z)-3-(1-hydroxyethylidene)-1-methyl-5-(trifluoromethyl)indolin-2-one]
- MIC [1]: 64 µg/mL (≈ 249 µM)
- MIC [3]: > 64 µg/mL
- MIC [4]: > 64 µg/mL
- MIC [5]: > 64 µg/mL
- MIC [6]: 16 µg/mL (≈ 62.2 µM)
- MIC [7, 8]: > 64 µg/mL

Structure (SMILES): C/C(O)=C1/C(=O)N(C)c2cc(C(F)(F)F)ccc21 [Compound 5r, (Z)-3-(1-hydroxyethylidene)-1-methyl-6-(trifluoromethyl)indolin-2-one]
- MIC [1]: 64 µg/mL (≈ 249 µM)
- MIC [4]: > 64 µg/mL
- MIC [5]: > 64 µg/mL
- MIC [6]: > 64 µg/mL
- antifungal activity (class in words) [7]: moderate antifungal activity
- MIC [7]: 16 µg/mL (≈ 62.2 µM)
- MIC [7, 8]: 8 to 16 µg/mL (≈ 31.1 to 62.2 µM)

Structure (SMILES): COc1ccc2c(c1)/C(=C(\C)O)C(=O)N2Cc1ccccc1 [Compound 5s, (Z)-1-benzyl-3-(1-hydroxyethylidene)-5-methoxyindolin-2-one]
- MIC [1]: 32 µg/mL (≈ 108 µM)
- MIC [2]: 64 µg/mL (≈ 217 µM)
- MIC [3]: 64 µg/mL (≈ 217 µM)
- MIC [4]: > 64 µg/mL
- MIC [5]: > 64 µg/mL
- MIC [6]: 16 µg/mL (≈ 54.2 µM)
- MIC [7, 8]: > 64 µg/mL

Structure (SMILES): CCN1C(=O)/C(=C(/C)O)c2ccccc21 [Compound 5t, (Z)-1-ethyl-3-(1-hydroxyethylidene) indolin-2-one]
- MIC [1]: > 64 µg/mL
- MIC [2]: 64 µg/mL (≈ 315 µM)
- MIC [3]: > 64 µg/mL
- MIC [4]: > 64 µg/mL
- MIC [5]: > 64 µg/mL
- MIC [6]: 32 µg/mL (≈ 157 µM)
- MIC [7, 8]: 32 µg/mL (≈ 157 µM)

Structure (SMILES): C/C(O)=C1/C(=O)N(Cc2ccccc2)c2ccccc21 [Compound 5u, (Z)-1-benzyl-3-(1-hydroxyethylidene)indolin-2-one]
- MIC [3]: 64 µg/mL (≈ 241 µM)
- MIC [4]: > 64 µg/mL
- MIC [5]: 64 µg/mL (≈ 241 µM)
- MIC [6]: 2 µg/mL (≈ 7.54 µM)
- MIC [7, 8]: 32 µg/mL (≈ 121 µM)

Structure (SMILES): CCCN1C(=O)/C(=C(/C)O)c2ccccc21 [Compound 5v, (Z)-3-(1-hydroxyethylidene)-1-propylindolin-2-one]
- MIC [1]: 64 µg/mL (≈ 295 µM)
- MIC [2]: 64 µg/mL (≈ 295 µM)
- MIC [4]: > 64 µg/mL
- MIC [5]: > 64 µg/mL
- MIC [6]: 16 µg/mL (≈ 73.6 µM)
- MIC [7, 8]: 32 µg/mL (≈ 147 µM)

Structure (SMILES): COc1ccc(CN2C(=O)/C(=C(/C)O)c3ccccc32)cc1 [Compound 5w, (Z)-3-(1-hydroxyethylidene)-1-(4-methoxybenzyl)indolin-2-one]
- MIC [1]: > 64 µg/mL
- MIC [2]: 64 µg/mL (≈ 217 µM)
- MIC [3]: 64 µg/mL (≈ 217 µM)
- MIC [4]: > 64 µg/mL
- MIC [5]: > 64 µg/mL
- MIC [6]: 8 µg/mL (≈ 27.1 µM)
- MIC [7, 8]: 32 µg/mL (≈ 108 µM)
